Measurements from patent US12043599B2, “Herbicidal compounds” (SYNGENTA PARTICIPATIONS AG, priority 2018, dated 2024).

Key:
Format in all cases: in vivo
Conditions in all cases: 250 g/h, evaluated after 13 days
[1] = system: Echinochloa crus-galli (ECHCG); experiment: Post-emergence herbicidal glasshouse test, percentage damage
Description: (§1) Seeds of a variety of test species are sown in standard soil in pots (Lolium perenne (LOLPE), Setaria faberi (SETFA), Alopecurus myosuroides (ALOMY), Echinochloa crus-galli (ECHCG), Avena fatua (AVEFA)). After cultivation for one day (pre-emergence) or after 8 days cultivation (post-emergence) under controlled conditions in a glasshouse (at 24/16° C., day/night; 14 hours light; 65% humidity), the plants are sprayed with an aqueous spray solution derived from the formulation of the technical active ingredient in acetone/water (50:50) solution containing 0.5% Tween 20 (polyoxyethelyene sorbitan monolaurate, CAS RN 9005-64-5). Compounds are applied at […]. The test plants are then grown in a glasshouse under controlled conditions in a glasshouse (at 24/16° C., day/night; 14 hours light; 65% humidity) and watered twice daily. After 13 days for pre and post-emergence, the test is evaluated for the percentage damage caused to the plant. The biological activities are shown in the following table on a five point scale (5=80-100%; 4=60-79%; 3=40-59%; 2=20-39%; 1=0-19%).

Lolium perenne (LOLPE) [2] = experiment: as above
Description: as §1

Avena fatua (AVEFA) [3] = experiment: as above
Description: as §1

[4] = system: Alopecurus myosuroides (ALOMY); experiment: Pre-emergence herbicidal glasshouse test, percentage damage
Description: as §1

[5] = system: Echinochloa crus-galli (ECHCG); experiment: as above
Description: as §1

Lolium perenne (LOLPE) [6] = experiment: as above
Description: as §1

Setaria faberi (SETFA) [7] = experiment: as above
Description: as §1

Avena fatua (AVEFA) [8] = experiment: as above
Description: as §1

Setaria faberi (SETFA) [9] = experiment: Post-emergence herbicidal glasshouse test, percentage damage
Description: as §1
Using procedures outlines above, wheat and barley crop plants and a weed species (SETFA) are treated post-emergence with compound A11 of the present invention or comparator compound C1 (Compound A-38 from WO2014/096289) at the application rates indicated. The compounds were also applied to wheat in conjunction with the safener compound cloquintocet-mexyl (CQC) at 50 g/ha.

Which results are given for `CC#Cc1cc(C)c(C2=C(OC(=O)OC)CC3(CCN(C(=O)c4ccncn4)CC3)CC2=O)c(C)c1` [Compound P37]?
ECHCG POST percentage damage (five point scale) [1]: 5 (5=80-100%); LOLPE POST percentage damage (five point scale) (Lolium perenne (LOLPE) [2]): 5 (5=80-100%); AVEFA POST percentage damage (five point scale) (Avena fatua (AVEFA) [3]): 5 (5=80-100%); ALOMY PRE percentage damage (five point scale) [4]: 5 (5=80-100%); ECHCG PRE percentage damage (five point scale) [5]: 5 (5=80-100%); LOLPE PRE percentage damage (five point scale) (Lolium perenne (LOLPE) [6]): 5 (5=80-100%); SETFA PRE percentage damage (five point scale) (Setaria faberi (SETFA) [7]): 5 (5=80-100%); AVEFA PRE percentage damage (five point scale) (Avena fatua (AVEFA) [8]): 5 (5=80-100%); SETFA POST percentage damage (five point scale) (Setaria faberi (SETFA) [9]): 5 (5=80-100%)

`CC#Cc1cc(C)c(C2C(=O)CC3(CCN(C(=O)c4nc(OC)n(C)n4)CC3)CC2=O)c(C)c1` [Compound A105] was tested. Which “ECHCG POST percentage damage (five point scale)” value (from here on “ECHCG POST percentage damage”) [1] did it give?
The value was 3 (3=40-59%).

What about the “LOLPE POST percentage damage (five point scale)” value (shortened to “LOLPE POST percentage damage”) (Lolium perenne (LOLPE) [2]) of the same molecule?
The value was 5 (5=80-100%).

What about the “AVEFA POST percentage damage (five point scale)” value (“AVEFA POST percentage damage” below) (Avena fatua (AVEFA) [3]) of the same molecule?
Its value is 5 (5=80-100%).

And the “ALOMY PRE percentage damage (five point scale)” value [4]?
Its value is 5 (5=80-100%).

What about the “ECHCG PRE percentage damage (five point scale)” value (from here on “ECHCG PRE percentage damage”) [5] of the same molecule?
The value was 5 (5=80-100%).

What about the “LOLPE PRE percentage damage (five point scale)” value (from here on “LOLPE PRE percentage damage”) (Lolium perenne (LOLPE) [6]) of the same molecule?
Its value is 5 (5=80-100%).

And the “SETFA PRE percentage damage (five point scale)” value (from here on “SETFA PRE percentage damage”) (Setaria faberi (SETFA) [7])?
The value was 5 (5=80-100%).

What about the “AVEFA PRE percentage damage (five point scale)” value (from here on “AVEFA PRE percentage damage”) (Avena fatua (AVEFA) [8]) of the same molecule?
The value was 5 (5=80-100%).

What about the “SETFA POST percentage damage (five point scale)” value (from here on “SETFA POST percentage damage”) (Setaria faberi (SETFA) [9]) of the same molecule?
Its value is 5 (5=80-100%).

`CC#Cc1cc(C)c(C2=C(OC(=O)OC)CC3(CCN(C(=O)C4=NOC(C)(C)C4)CC3)CC2=O)c(C)c1` [Compound P39] was tested. Which “ECHCG POST percentage damage” value [1] did it give?
The value was 5 (5=80-100%).

And the “LOLPE POST percentage damage” value (Lolium perenne (LOLPE) [2])?
The value was 5 (5=80-100%).

And the “AVEFA POST percentage damage” value (Avena fatua (AVEFA) [3])?
Its value is 5 (5=80-100%).

What about the “ALOMY PRE percentage damage (five point scale)” value [4] of the same molecule?
Its value is 5 (5=80-100%).

And the “ECHCG PRE percentage damage” value [5]?
Its value is 5 (5=80-100%).

What about the “LOLPE PRE percentage damage” value (Lolium perenne (LOLPE) [6]) of the same molecule?
The value was 5 (5=80-100%).

What about the “SETFA PRE percentage damage” value (Setaria faberi (SETFA) [7]) of the same molecule?
Its value is 5 (5=80-100%).

What about the “AVEFA PRE percentage damage” value (Avena fatua (AVEFA) [8]) of the same molecule?
Its value is 5 (5=80-100%).

And the “SETFA POST percentage damage” value (Setaria faberi (SETFA) [9])?
The value was 5 (5=80-100%).

What does the source list for `CC#Cc1cc(C)c(C2C(=O)CC3(CCN(C(=O)c4cccc(OC)n4)CC3)CC2=O)c(C)c1` [Compound A110]?
ECHCG POST percentage damage (five point scale) [1]: 5 (5=80-100%); LOLPE POST percentage damage (five point scale) (Lolium perenne (LOLPE) [2]): 5 (5=80-100%); AVEFA POST percentage damage (five point scale) (Avena fatua (AVEFA) [3]): 5 (5=80-100%); ECHCG PRE percentage damage (five point scale) [5]: 5 (5=80-100%); LOLPE PRE percentage damage (five point scale) (Lolium perenne (LOLPE) [6]): 5 (5=80-100%); SETFA PRE percentage damage (five point scale) (Setaria faberi (SETFA) [7]): 5 (5=80-100%); AVEFA PRE percentage damage (five point scale) (Avena fatua (AVEFA) [8]): 5 (5=80-100%); SETFA POST percentage damage (five point scale) (Setaria faberi (SETFA) [9]): 5 (5=80-100%)

With `CC#Cc1cc(C)c(C2C(=O)CC3(CCN(C(=O)c4cc(C)nc(C)n4)CC3)CC2=O)c(C)c1` [Compound A122] as the molecule, how does the “ECHCG POST percentage damage” value [1] read?
Its value is 5 (5=80-100%).

And the “LOLPE POST percentage damage” value (Lolium perenne (LOLPE) [2])?
Its value is 5 (5=80-100%).

And the “AVEFA POST percentage damage” value (Avena fatua (AVEFA) [3])?
Its value is 5 (5=80-100%).

What about the “ECHCG PRE percentage damage” value [5] of the same molecule?
Its value is 5 (5=80-100%).

What about the “LOLPE PRE percentage damage” value (Lolium perenne (LOLPE) [6]) of the same molecule?
Its value is 5 (5=80-100%).

What about the “SETFA PRE percentage damage” value (Setaria faberi (SETFA) [7]) of the same molecule?
Its value is 5 (5=80-100%).

What about the “AVEFA PRE percentage damage” value (Avena fatua (AVEFA) [8]) of the same molecule?
Its value is 5 (5=80-100%).

What about the “SETFA POST percentage damage” value (Setaria faberi (SETFA) [9]) of the same molecule?
Its value is 5 (5=80-100%).

For `CC#Cc1cc(C)c(C2C(=O)CC3(CCN(C(=O)c4ccc(OC)nn4)CC3)CC2=O)c(C)c1` [Compound A132], which “ECHCG POST percentage damage” value [1] is on record?
The value was 5 (5=80-100%).

And the “LOLPE POST percentage damage” value (Lolium perenne (LOLPE) [2])?
Its value is 5 (5=80-100%).

And the “AVEFA POST percentage damage” value (Avena fatua (AVEFA) [3])?
Its value is 5 (5=80-100%).

And the “ECHCG PRE percentage damage” value [5]?
Its value is 5 (5=80-100%).

What about the “LOLPE PRE percentage damage” value (Lolium perenne (LOLPE) [6]) of the same molecule?
Its value is 5 (5=80-100%).

And the “SETFA PRE percentage damage” value (Setaria faberi (SETFA) [7])?
Its value is 5 (5=80-100%).

And the “AVEFA PRE percentage damage” value (Avena fatua (AVEFA) [8])?
The value was 5 (5=80-100%).

And the “SETFA POST percentage damage” value (Setaria faberi (SETFA) [9])?
The value was 5 (5=80-100%).

With `CC#Cc1cc(C)c(C2=C(OC(=O)OC)CC3(CCN(C(=O)c4ccncc4)CC3)CC2=O)c(C)c1` [Compound P45] as the molecule, how does the “ECHCG POST percentage damage” value [1] read?
The value was 5 (5=80-100%).

And the “LOLPE POST percentage damage” value (Lolium perenne (LOLPE) [2])?
Its value is 5 (5=80-100%).

And the “AVEFA POST percentage damage” value (Avena fatua (AVEFA) [3])?
The value was 5 (5=80-100%).

What about the “ECHCG PRE percentage damage” value [5] of the same molecule?
Its value is 5 (5=80-100%).

What about the “LOLPE PRE percentage damage” value (Lolium perenne (LOLPE) [6]) of the same molecule?
The value was 5 (5=80-100%).

And the “SETFA PRE percentage damage” value (Setaria faberi (SETFA) [7])?
The value was 5 (5=80-100%).

What about the “AVEFA PRE percentage damage” value (Avena fatua (AVEFA) [8]) of the same molecule?
Its value is 5 (5=80-100%).

What about the “SETFA POST percentage damage” value (Setaria faberi (SETFA) [9]) of the same molecule?
The value was 5 (5=80-100%).
